Columns and labels:
Format in all cases: cell-based
[1] = tested on: human Mesenchymal Stem Cells; assay: OCT4 expression after TSA treatment in hMSC (RT-PCR); set-up: key to OCT4 expression: +/− expression detectable; (+) clear expression; (++ strong expression); details: for OCT4 expression: hMSC, RT-PCR
Experimental: (§1) (a) RNA isolation and eDNA synthesis. At the time of harvest, medium was aspirated and cells were lyzed using Ultraspec™ (Biotecx) or Trizol® (Gibco BRL). RNA was isolated according to the instructions of the suppliers. RNA concentration was determined by measuring OD260 and equal amounts of RNA of the indicated cell lines were subjected to conversion into cDNA. RNA was reversed transcribed using random primers and 15 units M-MuLV (Promega) in a reaction mixture containing 4 μl 25 mM MgCl2, 2 μl of each of the four dNTPs at 10 mM and 0.5 μl RNasin (Promega) in a total volume of 20 μl. RNA and 0.5 μg random hexamers were pre-incubated for 10 minutes at 55-60°. Mixtures were incubated at 37° C. for 1 hour.
(§2) (b) PCR reactions. PCR was were performed using 2 μl cDNA, 2.5 μl 10× SuperTaq buffer (without magnesium), 0.25 μl forward primer, 0.25 μl reverse primer, 0.50 μl 10 mM dNTPs, 1.25 Units of SuperTaq polymerase. In the case of β2-microglobulin 1.5 mM MgCl2 was added to the reaction mixture. For mouse UTF1 PCR, normal Taq polymerase (Roche) was used with a buffer containing MgCl2. The conditions for the PCR reaction were: 5 minutes 94° C.; 28 cycles of 30 seconds 94° C., 30 seconds 60° C. and 30 seconds 72° C.; 10 minutes 72° C., using a PTC-200, Peltier Thermal cycler. PCR-fragments were run on a 2% agarose gel and visualized by ethidium bromide staining.
(§3) HDAC activity is inhibited by Trichostatin A (TSA). Human mesenchymal stem cells and mouse and human neuronal progenitor cells were treated by TSA at concentration of 10 and 50 ng/ml. After 24 and 48 hours, OCT4 expression was analyzed by RT-PCR.

[2] = tested on: human Neural Progenitor Cells; assay: OCT4 expression after TSA treatment in hNPC (RT-PCR); set-up: key to OCT4 expression: +/− expression detectable; (+) clear expression; (++ strong expression); details: for OCT4 expression: hNPC, RT-PCR
Experimental: as §1, §2, §3

[3] = tested on: mouse Neural Progenitor Cells; assay: OCT4 expression after TSA treatment in mNPC (RT-PCR); set-up: key to OCT4 expression: +/− expression detectable; (+) clear expression; (++ strong expression); details: for OCT4 expression: mNPC (eGFP/bcl2), RT-PCR
Experimental: as §1, §2, §3

TSA treated cells = assay: UTF1 expression and TGF-beta/activin/BMP responsiveness of TSA treated cells

For `CC(/C=C/C(=O)NO)=C\[C@@H](C)C(=O)c1ccc(N(C)C)cc1` [TSA, Trichostatin A], the OCT4 expression ([1]; TSA 10 ng/ml, 24 hours) was “+”, the OCT4 expression ([1]; TSA 10 ng/ml, 48 hours) was “++” and the OCT4 expression ([1]; TSA 50 ng/ml, 24 hours) was “+”. For the same molecule, the OCT4 expression ([1]; TSA 50 ng/ml, 48 hours) was “++”, the SSEA4 expression ([1]; human MSC, TSA treated, in parallel with upregulation of OCT4) was “increased” and the “expression of OCT4” value ([1]; human MSC, TSA treatment for 24 to 48 hours) was “enhances”. The OCT4 expression ([2]; TSA 10 ng/ml, 24 hours) was “+”, the OCT4 expression ([2]; TSA 10 ng/ml, 48 hours) was “++” and the OCT4 expression ([2]; TSA 50 ng/ml, 24 hours) was “+”. The SSEA4 expression ([2]; human Neural Progenitor Cells, TSA treated, in parallel with upregulation of OCT4) was “increased”, the “expression of OCT4” value ([2]; human Neural Progenitor Cells, TSA treatment for 24 to 48 hours) was “enhances” and the OCT4 expression ([3]; TSA 10 ng/ml, 24 hours) was “+”. The OCT4 expression ([3]; TSA 10 ng/ml, 48 hours) was “++”, the OCT4 expression ([3]; TSA 50 ng/ml, 24 hours) was “+” and the “expression of OCT4” value ([3]; mouse neural progenitor cells, TSA treatment for 24 to 48 hours) was “enhances”. The “TGF-beta, activin and BMP responsiveness” value (TSA treated cells) was “reduction” and the “expression of UTF1” value (TSA treated cells) was “increased”.

Source: patent publication US20030219866A1, “Stem cell-like cells” (priority 2000, published 2003)
